Test results from patent US11236084B2, “Substituted azaindoline derivatives as NIK inhibitors” (Janssen Pharmaceutica NV, priority 2017, dated 2022).
Like-named read-outs stand apart in the source and are kept apart here.

What was measured:
[1] = target: T1, recombinant human NF-kappaB-inducing kinase (NIK/MAP3K14) (Homo sapiens, UniProt Q99558); assay: Biological Assay B: inhibition of auto-phosphorylation of recombinant human NIK/MAP3K14 (AlphaScreen), performed at 2 locations; type: biochemical; conditions: averaged values
Method in brief: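 Run at two separate sites: 1 h, 25° C. reactions containing 0.2 nM GST-NIK, 25 microM ATP and compound (1% DMSO) in Tris pH 7.5/MgCl2 buffer. Phosphorylation detected via anti-phospho-IKK Ser176/180 antibody with AlphaScreen beads; IC50 fitted to % inhibition.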

[2] = test system: P-IKKα levels in L363 (NIK translocated multiple myeloma) cells; assay: Biological Assay C: effect of compounds on P-IKKα levels in L363 (NIK translocated multiple myeloma) cells, performed at 2 locations; type: cell-based, human; conditions: averaged values
Method in brief: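 Human L363 cells were primed 24 h with recombinant human BAFF, then treated 2 h with compound (8-point 1:3 dilutions, 1% DMSO) at 37 °C. IC50 came from a sigmoidal fit of % inhibition versus log concentration, determined at two sites.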

[3] = target: T1, recombinant human NF-kappaB-inducing kinase (NIK/MAP3K14); assay: Biological Assay A: inhibition of recombinant human NF-kappaB-inducing kinase (NIK/MAP3K14) activity (MBP phosphorylation, Mesoscale); conditions: MSD MBP; averaged over all measurements on all batches; read-out: Assay A Biochemical (MSD MBP) IC50
Method: Pharmacological Part Biological Assay A Inhibition of Recombinant Human NF-kappaB-Inducing Kinase (NIK/MAP3K14) Activity
Assay buffer was 50 mM Tris pH 7.5 containing 1 mM EGTA (ethylene glycol tetraacetic acid), 1 mM DTT (dithiothreitol), 0.1 mM Na3VO4, 5 mM MgCl2, 0.01% Tween® 20. Assays were carried out in 384 well Mesoscale high binding plates which had been coated with myelin basic protein (MBP) and blocked with bovine serum albumin to prevent non-specific protein binding. All compounds tested were dissolved in dimethyl sulfoxide (DMSO) and further dilutions were made in assay buffer. Final DMSO concentration was 1% (v/v) in assays. Incubations consisted of compound (1% DMSO in control and blank wells), 25 μM […] (ATP), and 10 nM NIK/MAP3K14 substituting enzyme with buffer in the blank wells. Incubations were carried out for 1 h at 25° C. and were followed by washing and sequential incubation with rabbit anti-phospho-MBP and anti-rabbit Ig Sulfotag antibody before reading bound Sulfotag on a Mesoscale Discovery. Signal obtained in the wells containing blank samples was subtracted from all other wells and […] were determined by fitting a sigmoidal curve to % inhibition of control versus Log10 compound concentration.
Data for the compounds of the invention in the above assays are provided in Table A (the values in Table are averaged values over all measurements on all batches of a compound; values as IC50 (nM)). (‘n.c.’ means not calculated: ‘Co.’ means compound)

[4] = location 1, NIK auto-phosphorylation, AlphaScreen, read-out: Assay B location 1 IC50
[5] = location 2, AlphaScreen auto-phosphorylation, read-out: Assay B location 2 IC50
[6] = Homo sapiens, L-363, location 2, L363 cells, P-IKKα levels, read-out: Assay C location 2 IC50

T1 sequence (Q99558 whole entry): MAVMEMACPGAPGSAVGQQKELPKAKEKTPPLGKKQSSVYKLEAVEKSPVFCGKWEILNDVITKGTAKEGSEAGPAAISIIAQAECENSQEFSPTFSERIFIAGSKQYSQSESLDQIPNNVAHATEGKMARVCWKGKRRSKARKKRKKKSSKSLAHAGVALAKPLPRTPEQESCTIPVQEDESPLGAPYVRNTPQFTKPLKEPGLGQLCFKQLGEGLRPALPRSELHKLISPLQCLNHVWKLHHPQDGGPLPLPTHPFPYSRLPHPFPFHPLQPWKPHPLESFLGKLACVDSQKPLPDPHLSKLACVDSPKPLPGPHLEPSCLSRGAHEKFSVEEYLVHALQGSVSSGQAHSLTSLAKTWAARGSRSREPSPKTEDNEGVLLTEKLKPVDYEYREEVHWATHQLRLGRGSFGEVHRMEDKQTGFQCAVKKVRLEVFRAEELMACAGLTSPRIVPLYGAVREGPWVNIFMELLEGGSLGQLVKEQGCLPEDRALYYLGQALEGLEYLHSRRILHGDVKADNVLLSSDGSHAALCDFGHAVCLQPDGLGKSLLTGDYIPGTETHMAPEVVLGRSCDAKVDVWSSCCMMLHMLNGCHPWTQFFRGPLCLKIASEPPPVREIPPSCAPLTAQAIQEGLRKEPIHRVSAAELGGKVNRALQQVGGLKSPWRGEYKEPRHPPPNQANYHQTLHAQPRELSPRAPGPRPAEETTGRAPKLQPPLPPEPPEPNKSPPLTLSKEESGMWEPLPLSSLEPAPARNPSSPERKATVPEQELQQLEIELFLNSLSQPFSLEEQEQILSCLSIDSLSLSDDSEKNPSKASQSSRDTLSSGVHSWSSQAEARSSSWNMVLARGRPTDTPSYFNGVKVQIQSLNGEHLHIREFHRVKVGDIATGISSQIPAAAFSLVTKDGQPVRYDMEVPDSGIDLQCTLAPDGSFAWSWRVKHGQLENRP

SMILES	IC50 [1, 4]	melting point	IC50 ([2]; location 1, P-IKKα levels in L363 cells, 2 hr treatment, read-out: Assay C location 1 IC50)	IC50 [1, 5]	IC50 [3]	IC50 [2, 6]
COc1cc(C(=O)NC2CCOCC2)ccc1Nc1ncc(F)c(-c2cnc3c(c2)C(C)(CO)CN3)n1 (single isomer, unassigned) [Compound 349]	3.6 nM	> 250 °C				
COc1cc(N2CCC(O)CC2)c(Cl)cc1Nc1nccc(-c2cnc3c(c2)C(C)(CO)CN3)n1 (single isomer, unassigned) [Compound 16]	3.2 nM	> 260 °C	19.1 nM			
COc1cc(N2CC3(CCOCC3)C2)c(Cl)cc1Nc1ncc(F)c(-c2cnc3c(c2)C(C)(CO)CN3)n1 (stereo not shown) [Compound 345]	19.1 nM	> 250 °C				
COc1cc(Nc2nccc(-c3cnc4c(c3)C(C)(CO)CN4)n2)c(C)c(C(=O)NC2CN(C)C2)c1 (stereo not shown) [Compound 90]				5.1 nM	14.8 nM	759 nM
COc1cc(C(=O)NC2CCN(C)CC2)ccc1Nc1nccc(-c2cnc3c(c2)C(C)(C)CN3)n1 [Compound 60]				1.2 nM	5.5 nM	407 nM
COc1cc(N2CC3(CCOCC3)C2)c(Cl)cc1Nc1ncc(Cl)c(-c2cnc3c(c2)C(C)(CO)CN3)n1 (single isomer, unassigned) [Compound 347]	144 nM	> 250 °C				
Cc1cc(C(=O)N2CCS(=O)(=O)CC2)ccc1Nc1nccc(-c2cnc3c(c2)C(C)(CO)CN3)n1 (stereo not shown) [Compound 134]				4.4 nM	3.9 nM	776 nM
CC(=O)NCc1ccc(Nc2nccc(-c3cnc4c(c3)C(C)(C)CN4)n2)c(C)c1 [Compound 44]				2.5 nM	20 nM	243 nM

The next lines start with the values.

IC50 [1, 4]	melting point	IC50 ([2]; location 1, P-IKKα levels in L363 cells, 2 hr treatment, read-out: Assay C location 1 IC50)	IC50 [1, 5]	IC50 [3]	IC50 [2, 6]	SMILES
3 nM	236 °C					COc1ccc(Cl)cc1Nc1nccc(-c2cnc3c(c2)C(C)(CO)CN3)n1 (stereo not shown) [Compound 354]
295 nM	> 250 °C					COc1cc(C(=O)NC2CCOCC2)ccc1Nc1ncc(Cl)c(-c2cnc3c(c2)C(C)(CO)CN3)n1 (single isomer, unassigned) [Compound 350]
24.6 nM	208 °C					COCCOc1ccc(Cl)cc1Nc1nccc(-c2cnc3c(c2)C(C)(CO)CN3)n1 (stereo not shown) [Compound 356]
72.4 nM	210 °C					COc1ccc(Cl)cc1Nc1nccc(-c2cnc3c(c2)C(C)(C)CN3)n1 [Compound 353]
2.5 nM	221 °C					Cc1ccc(Cl)cc1Nc1nccc(-c2cnc3c(c2)C(C)(CO)CN3)n1 (stereo not shown) [Compound 355]
